Source: patent US20260085036A1 (MiHKAL GmbH, priority 2022, published 2026)

Legend:
[1] = Stability study in 1% HCl (representative of gastric acid); assay type: physicochemical; conditions: 37° C., approximately 21 hours, LC-MS
Protocol: (§1) Three novel compounds i.e., tert-butyl (2,5-dimethoxy-4-methylphenethyl)carbamate (Preparative Example 18), tert-butyl (2,5-dimethoxyphenethyl)carbamate (Preparative Example 7), and N-(3,4,5-Trimethoxyphenethyl-2-hydroxy-acetophenon imine (Preparative Example 17) were tested for their stability in 1% hydrochloric acid (HCl) as well as in phosphate buffers at pH 7.4 and pH 8.0. These conditions were selected to provide insights into the chemical stability of compounds at a pH values similar to conditions within the human body. The diluted hydrochloric acid (pH 1) represents gastric acid within the stomach whereas the potassium phosphate buffers at pH 7.4 and pH 8.0 simulate the conditions in the human blood and small intestine, respectively.
(§2) 4 mg of each test compound was diluted in either HCl solution or phosphate buffer (0.1 M) to give a solution of 1 mg/ml. Regarding the acidic testing with hydrochloric acid, 2 ml of aqueous test compound solutions were then added to 2 ml of 0.64 M HCl, yielding a final HCl concentration of 0.32 M (pH 0.5). Since all compounds tested, represent «free bases», a minimal amount of 100-200 microliters of dimethylsulfoxide (DMSO) has been added to avoid aggregation effects during testing. […] Concentrations of parent compound were analyzed at various timepoints using LC-MS. […]

[2] = target: T1, human NET (Homo sapiens, UniProt P23975); experiment: Uptake inhibition assay, NET; assay type: cell-based
T1 construct: expressed in transfected cells
T1 sequence (P23975 whole entry): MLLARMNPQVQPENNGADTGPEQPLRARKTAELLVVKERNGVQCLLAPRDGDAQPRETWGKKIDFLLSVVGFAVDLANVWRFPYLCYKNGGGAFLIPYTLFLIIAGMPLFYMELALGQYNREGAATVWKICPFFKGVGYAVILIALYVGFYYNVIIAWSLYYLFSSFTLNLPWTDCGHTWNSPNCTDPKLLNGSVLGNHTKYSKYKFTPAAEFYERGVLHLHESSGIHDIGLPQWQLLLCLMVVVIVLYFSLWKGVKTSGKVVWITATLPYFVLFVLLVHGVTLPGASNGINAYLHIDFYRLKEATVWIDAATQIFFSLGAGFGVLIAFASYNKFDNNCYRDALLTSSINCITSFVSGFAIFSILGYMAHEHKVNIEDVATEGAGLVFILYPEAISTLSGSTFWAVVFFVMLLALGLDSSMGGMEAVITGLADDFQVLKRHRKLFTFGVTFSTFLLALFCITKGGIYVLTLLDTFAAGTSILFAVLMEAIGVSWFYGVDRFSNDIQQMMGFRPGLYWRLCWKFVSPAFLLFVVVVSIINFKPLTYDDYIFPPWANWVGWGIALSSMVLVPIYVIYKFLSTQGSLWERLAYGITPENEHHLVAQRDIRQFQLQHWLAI
Protocol: (§3) Human embryonic kidney (HEK) 293 cells stably expressing human DAT, NET or SERT were maintained in humidified atmosphere (37° C., 5% CO2) in Dulbecco's Modified Eagle Medium (DMEM), supplemented with 10% heat-inactivated fetal calf serum (FCS), streptomycin (100 μg×100 mL^−1) and penicillin (100 U×100 mL^−1). Geneticin (50 μg×mL^−1) was used as selection antibiotic.
(§4) One day before the experiment, HEK293 cells expressing the respective transporters (DAT, NET or SERT) were seeded onto poly-D-lysine coated 96 well plates at a density of 30,000 cells per well in a final volume of 200 μL. For uptake experiments, the cell culture medium was replaced with […] Krebs-HEPES buffer (KHB; 25 mM HEPES, 120 mM NaCl, 5 mM KCl, 1.2 mM CaCl2, 1.2 mM MgSO4, and 5 mM D-glucose, pH 7.3). Then, the buffer was replaced with various concentrations of test compounds for 5 minutes; subsequent to that, 0.1 μM [^3H]5-HT (SERT), 0.1 μM [^3H]dopamine (DAT), or 0.05 μM [^3H]MPP^+ (NET) in KHB was added to yield a total volume of 50 μL in the well. For determination of non-specific uptake, paroxetine was used in case of SERT (3 μM), vanoxerine (also known as GBR12909) for DAT and NET (50 μM).
(§5) Uptake was terminated after 60 s (SERT) or 180 s (DAT, NET) by washing the cells with 200 μL ice-cold KHB. Subsequently, the cells were lysed with 200 μL Ultima Gold™ XR liquid scintillation cocktail, and the amount of tritium in the cells was measured with a Wallac 1450 MicroBeta® TriLux liquid scintillation counter. Monoamine uptake data were fitted by nonlinear regression, Vmax and Km values were calculated from Michaelis Menten's least-squares fit with GraphPad Prism (Prism 9.0.2, GraphPad Software, San Diego, CA, USA).
(§6) RT054 and RT056 were tested in both uptake inhibition and release assays, and the corresponding prodrug AM176 was tested in uptake inhibition assays. AM176 was tested either as the undecomposed prodrug or after treatment with 0.5% HCl at 37° C. for 24 hours in order to simulate digestion of the prodrug by gastric acid inside the body after peroral administration.

[3] = target: T2, human SERT (Homo sapiens, UniProt P31645); experiment: Uptake inhibition assay, SERT; assay type: cell-based
T2 construct: expressed in transfected cells
T2 sequence (P31645 whole entry): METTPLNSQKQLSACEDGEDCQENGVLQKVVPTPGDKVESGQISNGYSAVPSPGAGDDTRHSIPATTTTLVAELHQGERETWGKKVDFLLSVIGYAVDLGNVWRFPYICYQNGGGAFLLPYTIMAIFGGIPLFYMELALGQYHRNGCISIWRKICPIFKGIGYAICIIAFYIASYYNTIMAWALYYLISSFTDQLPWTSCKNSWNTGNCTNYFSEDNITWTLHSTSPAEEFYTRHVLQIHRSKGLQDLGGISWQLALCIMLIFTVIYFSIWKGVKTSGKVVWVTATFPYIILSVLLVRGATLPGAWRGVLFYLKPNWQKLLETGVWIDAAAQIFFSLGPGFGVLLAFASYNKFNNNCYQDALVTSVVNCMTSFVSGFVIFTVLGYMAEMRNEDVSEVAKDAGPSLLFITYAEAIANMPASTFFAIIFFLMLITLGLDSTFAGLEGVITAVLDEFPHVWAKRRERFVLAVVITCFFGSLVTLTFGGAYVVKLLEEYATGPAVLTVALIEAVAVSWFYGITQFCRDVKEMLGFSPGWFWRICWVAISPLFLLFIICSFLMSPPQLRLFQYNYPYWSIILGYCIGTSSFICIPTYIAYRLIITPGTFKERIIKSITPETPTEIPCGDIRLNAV
Protocol: as §3, §4, §5, §6

[4] = target: T3, human DAT (Homo sapiens, UniProt Q01959); experiment: Uptake inhibition assay, DAT; assay type: cell-based
T3 construct: expressed in transfected cells
T3 sequence (Q01959 whole entry): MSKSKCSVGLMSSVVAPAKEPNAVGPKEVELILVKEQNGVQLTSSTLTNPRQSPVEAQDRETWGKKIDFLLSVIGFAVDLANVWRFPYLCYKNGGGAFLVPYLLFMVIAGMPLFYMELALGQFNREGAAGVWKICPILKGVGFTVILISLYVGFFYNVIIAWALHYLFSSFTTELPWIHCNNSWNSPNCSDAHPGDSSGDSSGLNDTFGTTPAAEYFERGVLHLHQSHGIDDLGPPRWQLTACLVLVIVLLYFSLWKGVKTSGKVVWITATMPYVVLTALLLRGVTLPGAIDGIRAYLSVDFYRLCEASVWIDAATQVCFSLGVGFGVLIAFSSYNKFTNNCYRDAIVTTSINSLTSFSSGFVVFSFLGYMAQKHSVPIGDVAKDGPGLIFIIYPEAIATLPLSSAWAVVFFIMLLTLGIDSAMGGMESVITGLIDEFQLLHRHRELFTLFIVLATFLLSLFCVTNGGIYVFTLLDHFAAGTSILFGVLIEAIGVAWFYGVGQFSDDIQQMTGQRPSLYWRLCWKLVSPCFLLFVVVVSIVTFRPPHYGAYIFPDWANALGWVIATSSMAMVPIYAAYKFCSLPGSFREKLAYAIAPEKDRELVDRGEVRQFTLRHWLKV
Protocol: as §3, §4, §5, §6

[5] = patients; cited from earlier work
[6] = Stability study in phosphate buffers pH 7.4 and pH 8.0; assay type: physicochemical; conditions: phosphate buffer pH 7.4/pH 8.0, 37° C.
Protocol: as §1, §2

[7] = cited from earlier work
[8] = HEK293 cells stably expressing NET, [3H]MPP+
[9] = HEK293 cells stably expressing SERT, [3H]5-HT
[10] = HEK293 cells stably expressing DAT, [3H]dopamine

## COc1cc(CC/N=C(\C)c2ccccc2O)cc(OC)c1OC
[1]
  Degradation in 1% HCl to the corresponding drug: more retarded degradation behavior

## CC(Cc1ccc2c(c1)OCS2)N(C)C(=O)OC(C)(C)C (centres unmarked) [AM176, tert-butyl (1-benzo[d][1,3]oxathiole-6-yl)propan-2-yl(methyl)carbamate]
[2]; HCl-treated (0.5% HCl at 37° C. for 24 hours), HEK293 cells expressing NET
  IC50: 9.2 µM
[2]; after pre-treatment with HCl
  Interaction with NET in uptake inhibition assay (in words): inhibits substrate-uptake via all monoamine transporters in a competitive manner
[2]; without pre-treatment with HCl
  Interaction with NET in uptake inhibition assay (in words): no interaction
[3]; HCl-treated (0.5% HCl at 37° C. for 24 hours), HEK293 cells expressing SERT
  IC50: 18.3 µM
[3]; after pre-treatment with HCl
  Interaction with SERT in uptake inhibition assay (in words): inhibits substrate-uptake via all monoamine transporters in a competitive manner
[3]; without pre-treatment with HCl
  Interaction with SERT in uptake inhibition assay (in words): no interaction
[4]; HCl-treated (0.5% HCl at 37° C. for 24 hours), HEK293 cells expressing DAT
  IC50: 3.4 µM
[4]; after pre-treatment with HCl
  Interaction with DAT in uptake inhibition assay (in words): inhibits substrate-uptake via all monoamine transporters in a competitive manner
[4]; without pre-treatment with HCl
  Interaction with DAT in uptake inhibition assay (in words): no interaction

## COc1cc(CCN)cc(OC)c1OC [Mescaline, mescaline]
[5]
  oral dose to cause the desired psychedelic state: over 200 mg

## COc1ccc(OC)c(CCNC(=O)OC(C)(C)C)c1 [Preparative Example 7, tert.-butyl-(2,5-Dimethoxyphenethyl)carbamate]
[6]
  Degradation at neutral and basic conditions: complete stability

## COc1cc(CCNC(=O)OC(C)(C)C)c(OC)cc1C [Preparative Example 18, t-butyl-(2,5-Dimethoxy-4-methylphenethyl)carbamate]
[6]
  Degradation at neutral and basic conditions: complete stability

## CC(N)Cc1ccc2c(c1)OCS2 (centres unmarked) [RT054, Benzoxathiol-6-yl-propan-2-amine, reference compound]
[2]; [8]
  IC50: 0.8 µM
[3]; [9]
  IC50: 3.6 µM
[4]; [10]
  IC50: 1.3 µM

## CNC(C)Cc1ccc2c(c1)OCS2 (centres unmarked) [RT056, Benzoxathiol-6-yl-N-methyl-propan-2-amine]
[2]; [8]
  IC50: 1.8 µM
[3]; [9]
  IC50: 4.5 µM
[4]; [10]
  IC50: 0.9 µM

## NCCc1ccccc1 [phenethylamine (PEA), phenethylamine]
[7]
  half-life after oral consumption: approximately 10 minutes
